Assay results taken from patent US8618122B2, “Compound having acidic group which may be protected, and use thereof” (Ono Pharmaceutical Co., Ltd., priority 2006, dated 2013).

Assays:
CXCR4 = biological target: T1, CXCR4 (Homo sapiens, UniProt P61073); assay: Inhibition of binding human SDF-1 (125I-SDF-1) to CEM cells; settings: 125I-SDF-1 binding to human T cell strain CEM cells, 4° C., 60 minutes
T1 construct: a human T cell strain in which CXCR4 is known to be expressed; endogenous in cells; host or cells: CEM cells (human T cell strain)
T1 sequence (P61073 whole entry): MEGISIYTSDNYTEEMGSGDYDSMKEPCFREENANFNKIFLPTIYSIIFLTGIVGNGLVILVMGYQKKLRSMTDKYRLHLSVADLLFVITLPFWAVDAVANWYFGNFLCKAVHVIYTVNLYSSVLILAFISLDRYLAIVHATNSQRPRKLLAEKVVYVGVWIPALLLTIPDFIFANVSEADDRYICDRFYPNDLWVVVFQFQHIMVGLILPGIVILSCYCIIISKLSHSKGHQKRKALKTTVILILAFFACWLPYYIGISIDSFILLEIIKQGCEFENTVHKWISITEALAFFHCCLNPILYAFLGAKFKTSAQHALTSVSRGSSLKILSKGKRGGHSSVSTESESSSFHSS
Method: Specifically, as a system of screening a compound that inhibits the binding between SDF-1 and CXCR4, for example a system of measuring the binding between iodine-labeled SDF-1 and a human T cell strain in which CXCR4 is known to be expressed is operable.
To human T cell strain CEM cells in a binding buffer (containing HEPES and BSA), the test compound and ^125I-SDF-1 (NEN) were added and the mixture was incubated at 4° C. for 60 minutes. The reacted CEM cells were rapidly filtrated with a GF/B membrane filter plate (Packard) to adsorb. The plate was washed with phosphate buffered saline (hereinafter abbreviated to PBS) three times and then dried. Microscint+20 (Packard) was added thereto. An amount of the radioactivity bound to the CEM cells was measured using Top Count (Packard) and inhibition (%) of the test compound was calculated according to the following equation: Inhibition={(Et−Ea)/(Et−Ec)}×100
Et: Amount of radioactivity when the test compound is not added,
Ec: Amount of radioactivity when non-radioactive SDF-1 (Pepro Tech) is added in an amount of 1,000 times as much as ^125I-SDF-1 as a test compound,
Ea: Amount of radioactivity when the test compound is added.

[1] = Artificial lipid membrane binding using Biacore S51 system (in vitro phospholipidosis risk); settings: for Determination: Biacore lipid membrane binding, positive if corrected value 150 or more; for Corrected value of binding response (RU): compound 50 μM in PBS/5% DMSO (pH 7.4), 37° C., DOPA liposome on Sensor Chip L1
Method: 10 mM of 1,2-dioleoyl-sn-glycero-3-phosphate monosodium salt (hereinafter abbreviated as DOPA) chloroform solution was evaporated to dryness by means of an aspirator, and 0.6 mL of PBS/5% dimethyl sulfoxide (hereinafter abbreviated as DMSO) was added. The solution was fully suspended by the vortex mixer, and the freezing and thawing were repeated for 5 times. Liposome was created by the liposome preparation instrument (manufactured by Avestin Inc.) and two syringes, and was diluted to 0.5 mM with PBS/5% DMSO just prior to immobilization.
38 μl of 1×PBS was added to 2 μl of a DMSO solution (10 mM), and the 360 μl of 1×PBS/5% DMSO was further added thereto and the 50 μM of final concentration in PBS/5% DMSO was prepared and measured.
All of the following analysis used Biacore® S51 system and the measurement conditions were set by Biacore S51 Control Soft.
The measurement temperature was set to be 37° C., and PBS/5% DMSO (pH 7.4) was used as a buffer. Series S Sensor Chip L1 was used for a sensor chip. DOPA was immobilized in one of the measuring spots on the sensor surface and the central spot was used as a reference.
Immobilization of liposome was conducted at a flow rate of 10 μL/min for about 3 minutes and then the compound was added at a flow rate of 30 μL/min and the interaction was measured. The measurement conditions are as follows: • Assay buffer: PBS/5% DMSO (pH 7.4) • Measurement temperature: 37° C. • Sensor chip: Series S Sensor Chip L1 • Flow rate: 10 μL/min at the time of the liposome immobilization; 30 μL/min at the time of the measurement of interaction with the compound Regeneration: 20 mM CHAPS (3-[(3-cholamidopropyl)dimethylammonio]-1-propanesulfonate), isopropanol/aqueous 50 mM sodium hydroxide solution=40/60 (volume ratio) mixture (60 seconds) (4) Data Processing
The data processing was conducted by means of method of Abdiche et al. (Analytical biochemistry, 328, 233-243 (2004)) by using Biacore S51 Evaluation Soft.
Regarding the value of binding response (RU) in which the value of reference was subtracted, it was divided by a sample molecular weight after minute error of the DMSO concentration included in the sample solution was corrected. In addition, the value obtained here was divided by an amount of capture at the time of the cycle because the value obtained here was proportional to the amount of capture of the liposome and the value was multiplied by a million to be considered as a corrected value (Corrected value=1,000,000×RU (test compound)/molecular quantity (test compound) RU (liposome)).
Propranolol, amiodarone, desipramine, imipramine and procaine were added as the controls, and it was recognized that the variation of the binding response was within about 10 to 15%.
The compound wherein a value of the binding response after the correction was 150 or more was determined as positive.

[2] = tested on: CHL/IU (cell line derived from a Chinese hamster lung); assay: Phospholipidosis detecting system using fluorescent labeling phospholipid analog (NBD-PE); format: cell-based; settings: for Rate of increase of phopholipid accumulation (%): compound dose: 100 μM, CHL/IU cells, NBD-PE, about 24 hours; for Determination: positive if 25% or more of maximum increase rate of amiodarone
Method: 100 μL/well as required (1 dose 2 wells) of cell suspension of CHL/IU (cell line derived from a Chinese hamster lung) (7×10^4 cells/mL) prepared by MEM (minimum essential medium) culture medium was added to a 96-well plate (96-well clear-bottom plate), and cultured for about 24 hours. After culture, the supernatant of the 96-well plate was removed, and the 100 μL/well compounds of each concentration dissolved and suspended in an MEM including 25 μmol/L nitrobenzoxadiazole dipalmitoyl phosphatidylethanolamine (NBD-PE) (hereinafter abbreviated as a NPD-PE medium) were added and treated for about 24 hours. The treatment concentrations of each compound were set to be 6.25, 12.5, 25, 50 and 100 μmol/L. The positive control substance was set to be amiodarone hydrochloride, and the treatment concentrations were set to be 1.25, 2.5, 5, 10 and 20 μmol/L. In addition, 5-well untreated controls (only MEM) and 5-well NBD-PE controls (made by means of adding a 1/100 amount of DMSO to the NBD-PE culture medium) were set per compound, and cultured in the same manner. After finishing the culture, the cultures were washed twice with phosphate buffered saline (hereinafter abbreviated as PBS) (−) 100 μL/well, and the MEM (100 μL) was added to all of the treatment wells including two empty wells for WST-1 background controls and cultured for about a half hour. The fluorescence intensities of each well were measured by using a microplate reader (manufactured by Molecular Devices Inc., SPECTRA max M2; the excitation wavelength 485 nm/fluorescence wavelength 535 nm). Using the average values of each dose×2 wells, a phospholipid increase rate (%) to the NBD-PE control was calculated by using the following calculating formula: Rate of increase of pholipid accumulation (%)=100×{(test compound fluorescence intensity−non-treated control fluorescence intensity)/(NBD-PE control fluorescence intensity−non-treated control fluorescence intensity)} (3) Cytotoxicity Assay 96-well plate measured in the phospholipid accumulation measurement was measured by means of Plate Reader (manufactured by Molecular Devices Inc., SPECTRA max M2) with the main wavelength of 450 nm and the correct wavelength of 690 nm to calculate a Pre value. An amount of 5 μL/well of Premix WS T-1 was added to each of the 96-hole plates by which Pre measurement was conducted. After culture for 2 to 4 hours, the 96-well plate was measured as well as the Pre measurement to calculate an Aft value. Then, the background control value was subtracted from the each measured value. A value which was calculated by subtracting the Pre value from the Aft value was used, then the cell growth rate (%) was calculated by using the following calculating formula: Cell growth rate (%)=100×[(test substance OD)/(NBD-PE control OD)] (4) Determination A test dose that indicated value of 25% or more of the maximum phospholipid accumulation increase rate of amiodarone which was the positive control was determined as positive. In addition, the dose whose cell growth rate was equal to or less than 50% in the cytotoxicity assay was not used for determination of existence or nonexistence of a phospholipidosis inductive effect.

Row | Structure (SMILES) | IC50 (CXCR4) [nM] | Determination [1] | Corrected value of binding response (RU) [1] [RU] | Rate of increase of phopholipid accumulation (%) [2] [%] | Determination [2]
1 | O=C(O)CCn1ccnc1CN(Cc1ccc(CN2CCC3(CCN(C4CCCCC4)CC3)C2)cc1)Cc1ncc[nH]1 [Example 9 (1), 3-(2-{[{4-[(8-cyclohexyl-2,8-diazaspiro[4.5]dec-2-yl)methyl]benzyl}(1H-imidazol-2-ylmethyl)amino]methyl}-1H-imidazol-1-yl)propionic Acid] | 3.4 | Negative (The compound wherein a value of the binding response after the correction was 150 or more was determined as positive) | 52.0 | 6 | Negative (A test dose that indicated value of 25% or more of the maximum phospholipid accumulation increase rate of amiodarone which was the positive control was determined as positive)
2 | O=C(O)Cn1ccnc1CN(Cc1ccc(CN2CCC3(CCN(C4CCCCC4)CC3)C2)cc1)Cc1ncc[nH]1 [Example 9, (2-{[{4-[(8-cyclohexyl-2,8-diazaspiro[4.5]dec-2-yl)methyl]benzyl}(1H-imidazol-2-ylmethyl)amino]methyl}-1H-imidazol-1-yl)acetic Acid] | 4.8 | Negative (The compound wherein a value of the binding response after the correction was 150 or more was determined as positive) | 59.0 | 10 | Negative (A test dose that indicated value of 25% or more of the maximum phospholipid accumulation increase rate of amiodarone which was the positive control was determined as positive)
3 | CC(OC(=O)CCn1ccnc1CN(Cc1ccc(CN2CCC3(CCN(C4CCCCC4)CC3)C2)cc1)Cc1ncc[nH]1)OC(=O)OC1CCCCC1 (centres unmarked) [Example 36, 1-{[(cyclohexyloxy)carbonyl]oxy}ethyl 3-(2-{[{4-[(8-cyclohexyl-2,8-diazaspiro[4.5]dec-2-yl)methyl]benzyl}(1H-imidazol-2-ylmethyl)amino]methyl}-1H-imidazol-1-yl)propanoate] | 20.4 | – | – | – | –
4 | CCOC(=O)CCCn1ccnc1CN(Cc1ccc(CN2CCC3(CCN(CC(C)C)CC3)C2)cc1)Cc1ncc[nH]1 [Example 37 (1), Ethyl 4-(2-{[(1H-imidazol-2-ylmethyl){4-[(8-isobutyl-2,8-diazaspiro[4.5]dec-2-yl)methyl]benzyl}amino]methyl}-1 H-imidazol-1-yl)butanoate] | 13.7 | – | – | – | –

The next lines start with results.

Row | IC50 (CXCR4) [nM] | Structure (SMILES) | Determination [1] | Corrected value of binding response (RU) [1] [RU] | Rate of increase of phopholipid accumulation (%) [2] [%] | Determination [2]
5 | 11.8 | CCOC(=O)CCCn1ccnc1CN(Cc1ccc(CN2CCC3(CCN(C(CC)CC)CC3)C2)cc1)Cc1ncc[nH]1 [Example 37 (3), Ethyl 4-(2-{[(4-{[8-(1-ethylpropyl)-2,8-diazaspiro[4.5]dec-2-yl]methyl]benzyl)(1 H-imidazol-2-ylmethyl)amino]methyl}-1H-imidazol-1-yl)butanoate] | – | – | – | –
6 | 18.7 | CC(C)CN1CCC2(CC1)CCN(Cc1ccc(CN(Cc3ncc[nH]3)Cc3nccn3CCCC(=O)O)cc1)C2 [Example 38 (1), 4-(2-{[(1H-imidazol-2-ylmethyl){4-[(8-isobutyl-2,8-diazaspiro[4.5]dec-2-yl)methyl]benzyl}amino]methyl}-1H-imidazol-1-yl)butanoic Acid] | Negative (The compound wherein a value of the binding response after the correction was 150 or more was determined as positive) | 5.4 | 8 | Negative (A test dose that indicated value of 25% or more of the maximum phospholipid accumulation increase rate of amiodarone which was the positive control was determined as positive)
7 | 12 | CCC(CC)N1CCC2(CCN(Cc3ccc(CN(Cc4ncc[nH]4)Cc4nccn4CCCC(=O)O)cc3)C2)CC1 [Example 38 (3), 4-(2-{[(4-{[8-(1-ethylpropyl)-2,8-diazaspiro[4.5]dec-2-yl]methyl]benzyl)(1H-imidazol-2-ylmethyl)amino]methyl}-1H-imidazol-1-yl)butanoic Acid] | Negative (The compound wherein a value of the binding response after the correction was 150 or more was determined as positive) | 98.9 | 11 | Negative (A test dose that indicated value of 25% or more of the maximum phospholipid accumulation increase rate of amiodarone which was the positive control was determined as positive)
